In ChEMBL document CHEMBL3885881, “DrugMatrix”:

Species: Rattus norvegicus
Assay: DrugMatrix - Regimen: Daily Repeat
Format: toxicity, organism-based, Sprague-Dawley
Design: regimen Daily Repeat, gender Male, age 6-8 weeks
Settings: in vivo, po, route oral GAVAGE, vehicle 100 % WATER; for ABSOLUTE BASOPHIL / ABSOLUTE EOSINOPHIL / ABSOLUTE LYMPHOCYTE / ABSOLUTE MONOCYTE / ABSOLUTE SEGMENTED NEUTROPHIL / BASOPHIL / EOSINOPHIL / ERYTHROCYTE COUNT / HEMATOCRIT / HEMOGLOBIN / LEUKOCYTE COUNT / LYMPHOCYTE / MEAN CORPUSCULAR HEMOGLOBIN / MEAN CORPUSCULAR HEMOGLOBIN CONCENTRATION / MEAN CORPUSCULAR VOLUME / MONOCYTE / NEUTROPHIL / NUCLEATED RED BLOOD CELLS / PLATELET COUNT: tissue Blood; for ALANINE AMINOTRANSFERASE / ALBUMIN / ALKALINE PHOSPHATASE / ASPARTATE AMINOTRANSFERASE / BLOOD UREA NITROGEN / CARBON DIOXIDE / CHLORIDE / CHOLESTEROL / CREATINE PHOSPHOKINASE / CREATININE / GLUCOSE / LACTATE DEHYDROGENASE / LIPASE / PHOSPHORUS / POTASSIUM / SODIUM / TOTAL BILIRUBIN / TOTAL PROTEIN / URIC ACID: tissue Plasma
[1] = 0 mg/kg, 72 h, dose level Control, time 3 day
[2] = 0 mg/kg, 120 h, dose level Control, time 5 day
[3] = 300 mg/kg, 72 h, dose level Low, time 3 day

CC(Cl)(Cl)Cl [TRICHLOROETHANE]
ABSOLUTE BASOPHIL [1]: 0 CELLS/uL | ABSOLUTE EOSINOPHIL [1]: 86.33 CELLS/uL | ABSOLUTE LYMPHOCYTE [1]: 12090.17 CELLS/uL | ABSOLUTE MONOCYTE [1]: 166.67 CELLS/uL | ABSOLUTE SEGMENTED NEUTROPHIL [1]: 1090.17 CELLS/uL | BASOPHIL [1]: 0% | EOSINOPHIL [1]: 0.67% | ERYTHROCYTE COUNT [1]: 5.57 x10E6/uL | HEMATOCRIT [1]: 35.33% | HEMOGLOBIN [1]: 13.83 G/DL | LEUKOCYTE COUNT [1]: 13.43 x10E3/uL | LYMPHOCYTE [1]: 89.83% | MEAN CORPUSCULAR HEMOGLOBIN [1]: 24.88 pg | MEAN CORPUSCULAR HEMOGLOBIN CONCENTRATION [1]: 39.15 G/DL | MEAN CORPUSCULAR VOLUME [1]: 63.52 fL | MONOCYTE [1]: 1.17% | NEUTROPHIL [1]: 8.33% | NUCLEATED RED BLOOD CELLS [1]: 0 /100WBC | PLATELET COUNT [1]: 1181.33 x10E3/uL | ALANINE AMINOTRANSFERASE [1]: 48.33 u/L | ALBUMIN [1]: 4.1 G/DL | ALKALINE PHOSPHATASE [1]: 395 u/L | ASPARTATE AMINOTRANSFERASE [1]: 81.83 u/L | BLOOD UREA NITROGEN [1]: 15.83 mg/dL | CARBON DIOXIDE [1]: 24.17 mmol/L | CHLORIDE [1]: 103.83 MEQ/L | CHOLESTEROL [1]: 63.67 mg/dL | CREATINE PHOSPHOKINASE [1]: 372.83 u/L | CREATININE [1]: 0.18 mg/dL | GLUCOSE [1]: 173.83 mg/dL | LACTATE DEHYDROGENASE [1]: 188.33 u/L | LIPASE [1]: 9.5 u/L | PHOSPHORUS [1]: 11.95 mg/dL | POTASSIUM [1]: 5.99 MEQ/L | SODIUM [1]: 144.43 MEQ/L | TOTAL BILIRUBIN [1]: 0.15 mg/dL | TOTAL PROTEIN [1]: 5.95 G/DL | URIC ACID [1]: 1.82 mg/dL | ABSOLUTE BASOPHIL [2]: 0 CELLS/uL | ABSOLUTE EOSINOPHIL [2]: 26.67 CELLS/uL | ABSOLUTE LYMPHOCYTE [2]: 7583.83 CELLS/uL | ABSOLUTE MONOCYTE [2]: 131.33 CELLS/uL | ABSOLUTE SEGMENTED NEUTROPHIL [2]: 674.83 CELLS/uL | BASOPHIL [2]: 0% | EOSINOPHIL [2]: 0.33% | ERYTHROCYTE COUNT [2]: 5.78 x10E6/uL | HEMATOCRIT [2]: 36.48% | HEMOGLOBIN [2]: 14.03 G/DL | LEUKOCYTE COUNT [2]: 8.42 x10E3/uL | LYMPHOCYTE [2]: 89.83% | MEAN CORPUSCULAR HEMOGLOBIN [2]: 24.3 pg | MEAN CORPUSCULAR HEMOGLOBIN CONCENTRATION [2]: 38.52 G/DL | MEAN CORPUSCULAR VOLUME [2]: 63.15 fL | MONOCYTE [2]: 1.67% | NEUTROPHIL [2]: 8.17% | NUCLEATED RED BLOOD CELLS [2]: 0 /100WBC | PLATELET COUNT [2]: 1186.67 x10E3/uL | ALANINE AMINOTRANSFERASE [2]: 50.17 u/L | ALBUMIN [2]: 4.07 G/DL | ALKALINE PHOSPHATASE [2]: 367.5 u/L | ASPARTATE AMINOTRANSFERASE [2]: 81.67 u/L | BLOOD UREA NITROGEN [2]: 16.17 mg/dL | CARBON DIOXIDE [2]: 32.33 mmol/L | CHLORIDE [2]: 101.5 MEQ/L | CHOLESTEROL [2]: 65.33 mg/dL | CREATINE PHOSPHOKINASE [2]: 255.33 u/L | CREATININE [2]: 0.17 mg/dL | GLUCOSE [2]: 139.33 mg/dL | LACTATE DEHYDROGENASE [2]: 95 u/L | LIPASE [2]: 10.5 u/L | PHOSPHORUS [2]: 10.38 mg/dL | POTASSIUM [2]: 6.11 MEQ/L | SODIUM [2]: 145.55 MEQ/L | TOTAL BILIRUBIN [2]: 0.17 mg/dL | TOTAL PROTEIN [2]: 5.98 G/DL | URIC ACID [2]: 0.93 mg/dL | ABSOLUTE BASOPHIL [3]: 0 CELLS/uL | ABSOLUTE EOSINOPHIL [3]: 37 CELLS/uL | ABSOLUTE LYMPHOCYTE [3]: 13276 CELLS/uL | ABSOLUTE MONOCYTE [3]: 236.33 CELLS/uL | ABSOLUTE SEGMENTED NEUTROPHIL [3]: 1084 CELLS/uL | BASOPHIL [3]: 0% | EOSINOPHIL [3]: 0.33% | ERYTHROCYTE COUNT [3]: 5.75 x10E6/uL | HEMATOCRIT [3]: 37.23% | HEMOGLOBIN [3]: 14.1 G/DL | LEUKOCYTE COUNT [3]: 14.63 x10E3/uL | LYMPHOCYTE [3]: 90.67% | MEAN CORPUSCULAR HEMOGLOBIN [3]: 24.53 pg | MEAN CORPUSCULAR HEMOGLOBIN CONCENTRATION [3]: 37.87 G/DL | MEAN CORPUSCULAR VOLUME [3]: 64.8 fL | MONOCYTE [3]: 1.67% | NEUTROPHIL [3]: 7.33% | NUCLEATED RED BLOOD CELLS [3]: 0 /100WBC | PLATELET COUNT [3]: 1274 x10E3/uL | ALANINE AMINOTRANSFERASE [3]: 52 u/L | ALBUMIN [3]: 4 G/DL | ALKALINE PHOSPHATASE [3]: 352.67 u/L | ASPARTATE AMINOTRANSFERASE [3]: 88.67 u/L | BLOOD UREA NITROGEN [3]: 16 mg/dL | CARBON DIOXIDE [3]: 24.67 mmol/L | CHLORIDE [3]: 102.33 MEQ/L | CHOLESTEROL [3]: 72 mg/dL | CREATINE PHOSPHOKINASE [3]: 1076 u/L | CREATININE [3]: 0.13 mg/dL | GLUCOSE [3]: 161 mg/dL | LACTATE DEHYDROGENASE [3]: 188.67 u/L | LIPASE [3]: 9 u/L | PHOSPHORUS [3]: 13.77 mg/dL | POTASSIUM [3]: 6.88 MEQ/L | SODIUM [3]: 144.3 MEQ/L | TOTAL BILIRUBIN [3]: 0.2 mg/dL | TOTAL PROTEIN [3]: 5.83 G/DL | URIC ACID [3]: 1.93 mg/dL
